For three compounds, IC50 results are on record in BindingDB's records for doi:10.1021/jm00148a009 (1985).

Each structure is given as a SMILES string.

The target in this assay is Prostacyclin synthase (Sus scrofa). Kind of assay: Inhibition of porcine aorta prostacyclin PGI-2 synthase by bioassay method.
As a reminder, the IC50 is the concentration that inhibits the measured activity by half. Read a high IC50 as weaker potency in that assay. `c1cn(CCOc2ccc(-c3nnn[nH]3)cc2)cn1` [5-[4-(2-Imidazol-1-yl-ethoxy)-phenyl]-1H-tetrazole] displayed an IC50 greater than 100 µM.
With `CC(=O)Nc1ccc(OCCn2ccnc2)cc1` [N-[4-(2-Imidazol-1-yl-ethoxy)-phenyl]-acetamide], the IC50 was greater than 100 µM.
In turn, `O=C(O)Cc1ccccc1OCCn1ccnc1` [[2-(2-Imidazol-1-yl-ethoxy)-phenyl]-acetic acid] came in with an IC50 greater than 100 µM.
